Experimental data reported in ChEMBL document CHEMBL3046467, “Structure-activity relationship of carboxin-related carboxamides as fungicide” (2011).

How the values were obtained:
Type in all cases: functional
[1] = system: Pyricularia grisea; experiment: Fungicidal activity against Magnaporthe grisea spores inoculated on leaves of compound pre-treated 2 or 3 leaf-stage rice plants assessed as rice blast disease control level at 250 ppm measured after 7 days post fungal inoculation
[2] = system: Botrytis cinerea; experiment: Fungicidal activity against Botryotinia fuckeliana spores inoculated on leaves of compound pre-treated seed-leaf stage kidney beans assessed as gray mold disease control level at 62.5 ppm measured after 4 days post fungal inoculation
[3] = system: Podosphaera xanthii; experiment: Fungicidal activity against Podosphaera xanthii (powdery mildew) spores inoculated on leaves of compound pre-treated 1.5 leaf-stage cucumber plants assessed as powdery mildew disease control level at 250 ppm measured after 7 days post fungal inoculation
[4] = system: Puccinia recondita; experiment: Fungicidal activity against Puccinia recondita spores inoculated on leaves of compound pre-treated 1.5 leaf-stage wheat plants assessed as wheat brown rust disease control level at 250 ppm measured after 8 days post fungal inoculation
[5] = system: Podosphaera xanthii; experiment: Fungicidal activity against Podosphaera xanthii (powdery mildew) spores inoculated on leaves of compound pre-treated 1.5 leaf-stage cucumber plants assessed as powdery mildew disease control level at 25 ppm measured after 7 days post fungal inoculation
[6] = system: Puccinia recondita; experiment: Fungicidal activity against Puccinia recondita spores inoculated on leaves of compound pre-treated 1.5 leaf-stage wheat plants assessed as wheat brown rust disease control level at 25 ppm measured after 8 days post fungal inoculation
[7] = system: Pyricularia grisea; experiment: Fungicidal activity against Magnaporthe grisea spores inoculated on leaves of compound pre-treated 2 or 3 leaf-stage rice plants assessed as rice blast disease control level at 50 ppm measured after 7 days post fungal inoculation
[8] = system: Botrytis cinerea; experiment: Fungicidal activity against Botryotinia fuckeliana spores inoculated on leaves of compound pre-treated seed-leaf stage kidney beans assessed as gray mold disease control level at 500 ppm measured after 4 days post fungal inoculation

SMILES	Activity [1]	Activity [2]	Activity [3]	Activity [4]	Activity [5]	Activity [6]	Activity [7]	Activity [8]
Cc1ccsc1C(=O)Nc1ccccc1-c1ccccc1	<95%	>=95%	>=95%	<95%				
CCCCC(C)c1sccc1NC(=O)c1cn(C)nc1C(F)(F)F (configuration not stated)	>=95%	>=95%			>=50%	>=95%		
CCC(C)CC(C)c1sccc1NC(=O)c1cn(C)nc1C(F)(F)F (configuration not stated)		>=50%			>=95%	>=95%	>=95%	
CC(C)c1ccccc1NC(=O)c1cn(C)nc1C(F)(F)F	<95%	>=95%	>=95%			>=95%		
Cc1nc(C(F)(F)F)c(C(=O)Nc2ccsc2C(C)CC(C)C)s1 (configuration not stated)		>=95%			>=95%	>=95%		
Cc1occc1C(=O)Nc1ccsc1C(C)CC(C)C (configuration not stated)		>=95%			>=95%	>=95%	>=95%	
CCC(C)c1ccccc1NC(=O)c1cn(C)nc1C(F)(F)F (configuration not stated)	<95%	>=95%			>=50%	>=95%		
CC1=C(C(=O)Nc2ccsc2C(C)CC(C)C)CCCO1 (configuration not stated)		>=95%			>=50%	>=95%	>=95%	
CC1CC(C)(C)c2cccc(NC(=O)c3cccnc3Cl)c21 (configuration not stated)	<95%	>=50%	<95%	<95%				
Cn1cc(C(=O)Nc2ccccc2-c2ccccc2)c(Cl)n1	<95%		<95%	<95%				<95%
Cc1occc1C(=O)Nc1ccccc1-c1ccccc1	>=95%	>=95%	<95%	>=95%				
CCc1sccc1NC(=O)c1cn(C)nc1C(F)(F)F								>=95%
Cc1nc(Cl)c(C(=O)Nc2ccccc2-c2ccccc2)s1	<95%		<95%	<95%				<95%
CC(C)CC(C)c1sccc1NC(=O)c1cn(C)nc1C(F)F (configuration not stated)		>=95%			>=95%	>=95%	>=95%	
Cn1cc(C(=O)Nc2ccsc2-c2ccccc2)c(C(F)(F)F)n1	<95%	>=95%		<95%	>=50%			
CC(CC(C)(C)C)c1sccc1NC(=O)c1cn(C)nc1C(F)(F)F (configuration not stated)	<95%				>=95%	>=95%		<95%
CC(C)CC(C)c1sccc1NC(=O)c1ccccc1Cl (configuration not stated)	<95%				>=50%	>=95%		>=95%
CC1=C(C(=O)Nc2ccccc2-c2ccccc2)SCCO1	<95%	>=95%		<95%	>=50%			
CC1=C(C(=O)Nc2ccccc2-c2ccccc2)CCCO1	<95%	>=50%			>=95%	>=50%		
CC1=C(C(=O)Nc2ccsc2C(C)CC(C)C)SCCO1 (configuration not stated)	>=95%	>=95%	>=95%			>=95%		
CC(C)CC(C)c1sccc1NC(=O)c1nccnc1Cl (configuration not stated)	>=95%	>=95%	<95%			>=95%		
Cc1nc(C(F)F)c(C(=O)Nc2ccsc2C(C)CC(C)C)s1 (configuration not stated)		>=95%			>=95%	>=95%	>=95%	
CC(C)CC(C)c1sccc1NC(=O)c1cccnc1Cl (configuration not stated)		>=50%			>=95%			

SMILES	Activity [1]	Activity [2]	Activity [3]	Activity [4]	Activity [5]	Activity [6]	Activity [7]	Activity [8]
CC(C)c1sccc1NC(=O)c1cn(C)nc1C(F)(F)F	<95%	>=95%	>=95%			>=95%		
Cc1nn(C)cc1C(=O)Nc1ccsc1C(C)CC(C)C (configuration not stated)		>=95%	>=95%			>=95%	>=50%	
CC(C)CC(C)c1sccc1NC(=O)c1cn(C)nc1C(F)(F)F (configuration not stated) [PENTHIOPYRAD]		>=95%			>=95%	>=95%	>=95%	
Cn1cc(C(=O)Nc2ccccc2-c2ccccc2)c(C(F)(F)F)n1	<95%	>=95%		>=95%	>=50%			
Cc1nc(C(F)F)c(C(=O)Nc2ccccc2-c2ccccc2)s1	>=95%	>=95%		<95%	>=50%			
Cc1nc(C)c(C(=O)Nc2ccccc2-c2ccccc2)s1	<95%	>=50%	>=95%					
CC(C)CC(C)c1sccc1NC(=O)c1cn(C)nc1Cl (configuration not stated)		>=95%			>=50%	>=95%	>=50%	
CCC(CC)c1sccc1NC(=O)c1cn(C)nc1C(F)(F)F	<95%	>=95%	<95%			>=50%		
CC(C)CC(C)c1ccccc1NC(=O)c1cn(C)nc1C(F)(F)F (configuration not stated)		>=95%			>=95%	>=95%	>=95%	
Cc1nn(C)cc1C(=O)Nc1ccccc1-c1ccccc1	<95%	>=50%	<95%					
Cc1nc(C(F)(F)F)c(C(=O)Nc2ccccc2-c2ccccc2)s1	>=95%	>=95%			>=50%			
Cc1ccsc1C(=O)Nc1ccsc1C(C)CC(C)C (configuration not stated)		>=95%			>=95%	>=95%	>=95%	
CC1CC(C)(C)c2cccc(NC(=O)c3cn(C)nc3C(F)(F)F)c21 (configuration not stated)	<95%	>=95%	<95%			>=95%		
O=C(Nc1ccccc1-c1ccccc1)c1nccnc1Cl	<95%	>=95%	>=95%	<95%				
O=C(Nc1ccccc1-c1ccccc1)c1cccnc1Cl	<95%	>=50%	<95%					
CCCCCC(C)c1sccc1NC(=O)c1cn(C)nc1C(F)(F)F (configuration not stated)	<95%	>=50%			>=50%	>=95%		
Cc1nc(C)c(C(=O)Nc2ccsc2C(C)CC(C)C)s1 (configuration not stated)		>=95%			>=50%	>=95%	>=95%	
CC(C)CCC(C)c1sccc1NC(=O)c1cn(C)nc1C(F)(F)F (configuration not stated)	>=95%				>=50%	>=95%		>=95%
O=C(Nc1ccccc1-c1ccccc1)c1ccccc1Cl	<95%	>=95%	<95%					
CC(C)CCc1sccc1NC(=O)c1cn(C)nc1C(F)(F)F		>=95%			>=50%	>=95%		
CCC(C)c1sccc1NC(=O)c1cn(C)nc1C(F)(F)F (configuration not stated)	<95%	>=95%			>=50%	>=95%		
CCCC(C)c1sccc1NC(=O)c1cn(C)nc1C(F)(F)F (configuration not stated)	<95%	>=95%			>=95%	>=95%		
CCC(C)C(C)c1sccc1NC(=O)c1cn(C)nc1C(F)(F)F (configuration not stated)		>=95%			>=95%	>=95%	>=50%	
